Test results from patent US7799530B2, “Genetic polymorphisms associated with cardiovascular disorders and drug response, methods of detection and uses thereof” (Celera Corporation, priority 2005, dated 2010).

Columns and labels:
[1] = tested on: recurrent myocardial infarction (RMI) in CARE patients; experiment: CARE trial: recurrent MI in pravastatin- vs placebo-treated patients stratified by SNP genotype; assay type: in vivo, human; conditions: for HR, on-trial MI, Unadjusted: placebo = ref 1.00; for HR, on-trial MI, Adjusted: placebo = ref 1.00, adjusted for age, smoking, hypertension, diabetes, BMI, LDL-C, HDL-C; for OR_dom, risk of RMI / OR_het, risk of RMI / OR_maj, risk of RMI / OR_min, risk of RMI / OR, risk of RMI: placebo- vs. pravastatin-treated patients; for Risk Reduction by Statin (Pravastatin vs. Placebo) OR: odds ratio of recurrent MI, pravastatin- vs placebo-treated, heterozygous carriers of hCV3054799 only
Source text: In order to identify genetic markers associated with acute coronary events (e.g. MI, stroke, unstable angina, congestive heart failure, etc.) or response to statin treatment for the prevention of coronary events, samples were genotyped in two clinical trials: the Cholesterol and Recurrent Events (CARE) study (a randomized multicentral double-blinded trial on secondary prevention of acute coronary events with pravastatin; Sacks et al., Am. J. Cardiol. 68: 1436-1446[1991]), and the West of Scotland Coronary Prevention Study (WOSCOPS) study (Shepherd et al., N Eng J Med 333 (20), pp. 1301-7, Nov. 16, 1995; Packard et al., N Eng J Med 343 (16), pp. 1148-55, Oct. 19, 2000).
A well-documented myocardial infarction (MI) was one of the enrollment criteria for entry into the CARE study. Patients were enrolled in the CARE trial from 80 participating study centers. […] Patients were randomized to receive either 40 mg of pravastatin once daily or a matching placebo. The primary endpoint of the trial was death from coronary heart disease and the median duration of follow-up was 5.0 years (range, 4.0 to 6.2 years). All individuals included in the study had signed informed consent forms and the study protocol was approved by the respective Institutional Review Boards (IRBs).
For genotyping SNPs in CARE patient samples, DNA was extracted from blood samples using conventional DNA extraction methods such as the QIAamp kit from Qiagen. Genotypes were obtained by a method similar to that described by Lannone (M. A. Lannone et al., Cytometry 39(2):131-140 [Feb. 1, 2000]; also described in section “SNP DETECTION REAGENTS,” supra). Briefly, target DNA was amplified by multiplex PCR, the amplified product was submitted to a multiplex oligo ligation assay (OLA), the specific ligated products were hybridized to unique universal “ZIP code” oligomer sequences covalently attached to Luminex xMAP® Multi-Analyte COOH Microspheres, and these hybridization products/microspheres were detected in a rapid automated multiplex system using the Luminex 100 instrument. Alternatively, allele specific primers were designed for detecting each SNP and genotypes were obtained on an ABI PRISM® 7900HT Sequence Detection PCR system (Applied Biosystems) by allele-specific PCR, similar to the method described by Germer et al (Germer S., Holland M. J., Higuchi R. 2000, Genome Res. 10: 258-266). […]
In analyzing the CARE patients, statistical analysis was performed with SAS version 9. Cox proportional hazard models (Wald tests) were used in CARE to assess the association of genotype with both the risk of incident MI in the placebo arm and the effect of on MI pravastatin compared to placebo in subgroups defined by genotypes. In analyzing the WOSCOPS patients, a conditional logistic regression model was used in WOSCOPS given that the controls had been previously matched to the cases. The column entitled “On-trial MI” lists the number of patients who suffered an RMI during the clinical trial period.
An additional 175 markers were analyzed in samples from the CARE study (secondary MI prevention trial). […] Of the cases, 150 received placebo treatment and 114 received pravastatin; of the controls, 1290 received placebo and 1359 received pravastatin.
The genotypes for each SNP were tested for association with RMI. This genotypic test of association (i.e., minor homozygote genotype vs. major, and heterozygote vs. major) was performed separately for placebo-treated patients and for all patients unstratified by treatment group, using the Fisher's exact method. […] The reliability of the OR for each particular SNP is confirmed by its respective 95% confidence interval (CI) and P value, also shown. From Table 14 one can see the association of several SNPs with MI risk when they are present in a Homozygous Minor genotype (association based on an OR>1, the lower limit of the 95% CI>1 and a P value <0.05). […]

[2] = tested on: animal models and myocyte cultures; conditions: compared to other hydrophobic statins; cited from earlier work
[3] = marker hCV2741051, heterozygous
[4] = marker hCV2741051, major homozygous
[5] = marker hCV2741051, minor homozygous
[6] = marker hCV25745415, heterozygous
[7] = marker hCV25745415, major homozygous
[8] = marker hCV25745415, minor homozygous

Structure (SMILES): CC[C@H](C)C(=O)O[C@H]1C[C@H](O)C=C2C=C[C@H](C)[C@H](CC[C@@H](O)C[C@@H](O)CC(=O)O)[C@H]21 [pravastatin]
- HR, on-trial MI, Unadjusted ([1]; KIF6 hCV3054799 AA): 0.86
- HR, on-trial MI, Adjusted ([1]; KIF6 hCV3054799 AA): 0.80
- HR, on-trial MI, Unadjusted ([1]; KIF6 hCV3054799 GG + GA): 0.63
- HR, on-trial MI, Adjusted ([1]; KIF6 hCV3054799 GG + GA): 0.63
- OR_dom, risk of RMI ([1]; marker hCV465412, Dominant): 0.50
- OR_het, risk of RMI ([1]; marker hCV465412, Heterozygous): 0.47
- OR_maj, risk of RMI ([1]; marker hCV465412, Major Homozygous): 0.80
- OR_min, risk of RMI ([1]; marker hCV465412, Minor Homozygous): 1.35
- OR, risk of RMI ([1]; marker hCV881283, heterozygous): 0.19
- OR, risk of RMI ([1]; marker hCV881283, major homozygous): 0.76
- OR, risk of RMI ([1]; marker hCV881283, minor homozygous): 0.00
- OR, risk of RMI ([1]; marker hCV1603656, heterozygous): 0.33
- OR, risk of RMI ([1]; marker hCV1603656, major homozygous): 0.87
- OR, risk of RMI ([1]; marker hCV1603656, minor homozygous): 0.00
- OR_dom, risk of RMI ([1]; marker hCV2741051, Dominant): 1.07
- OR, risk of RMI [1, 3]: 1.02
- OR_het, risk of RMI [1, 3]: 1.02
- OR, risk of RMI [1, 4]: 0.55
- OR_maj, risk of RMI [1, 4]: 0.55
- OR, risk of RMI [1, 5]: 1.68
- OR_min, risk of RMI [1, 5]: 1.68
- OR_dom, risk of RMI ([1]; marker hCV3054799, Dominant): 0.65
- OR_het, risk of RMI ([1]; marker hCV3054799, Heterozygous): 0.57
- OR_maj, risk of RMI ([1]; marker hCV3054799, Major Homozygous): 0.98
- OR_min, risk of RMI ([1]; marker hCV3054799, Minor Homozygous): 1.00
- OR_dom, risk of RMI ([1]; marker hCV7514870, Dominant): 0.69
- OR_het, risk of RMI ([1]; marker hCV7514870, Heterozygous): 0.83
- OR_maj, risk of RMI ([1]; marker hCV7514870, Major Homozygous): 0.80
- OR_min, risk of RMI ([1]; marker hCV7514870, Minor Homozygous): 0.37
- OR_dom, risk of RMI ([1]; marker hCV11450617, Dominant): 0.62
- OR_het, risk of RMI ([1]; marker hCV11450617, Heterozygous): 0.61
- OR_maj, risk of RMI ([1]; marker hCV11450617, Major Homozygous): 0.78
- OR_min, risk of RMI ([1]; marker hCV11450617, Minor Homozygous): 0.68
- OR, risk of RMI ([1]; marker hCV12107274, heterozygous): 0.78
- OR, risk of RMI ([1]; marker hCV12107274, major homozygous): 0.55
- OR, risk of RMI ([1]; marker hCV12107274, minor homozygous): 1.75
- OR, risk of RMI ([1]; marker hCV15965459, heterozygous): 0.35
- OR, risk of RMI ([1]; marker hCV15965459, major homozygous): 0.82
- OR, risk of RMI ([1]; marker hCV15965459, minor homozygous): 0.95
- OR_dom, risk of RMI ([1]; marker hCV15973230, Dominant): 0.91
- OR_het, risk of RMI ([1]; marker hCV15973230, Heterozygous): 0.91
- OR_maj, risk of RMI ([1]; marker hCV15973230, Major Homozygous): 0.60
- OR_min, risk of RMI ([1]; marker hCV15973230, Minor Homozygous): 0.71
- OR, risk of RMI ([1]; marker hCV15974589, heterozygous): 0.67
- OR, risk of RMI ([1]; marker hCV15974589, major homozygous): 0.43
- OR, risk of RMI ([1]; marker hCV15974589, minor homozygous): 1.51
- OR, risk of RMI ([1]; marker hCV16054991, heterozygous): 0.53
- OR, risk of RMI ([1]; marker hCV16054991, major homozygous): 0.88
- OR, risk of RMI ([1]; marker hCV16054991, minor homozygous): 0.43
- OR, risk of RMI ([1]; marker hCV25472673, heterozygous): 0.61
- OR, risk of RMI ([1]; marker hCV25472673, major homozygous): 1.13
- OR, risk of RMI ([1]; marker hCV25472673, minor homozygous): 0.49
- OR, risk of RMI ([1]; marker hCV25623506, heterozygous): 3.29
- OR, risk of RMI ([1]; marker hCV25623506, major homozygous): 0.65
- OR, risk of RMI ([1]; marker hCV25623506, minor homozygous): 0.00
- OR_dom, risk of RMI ([1]; marker hCV25745415, Dominant): 0.92
- OR, risk of RMI [1, 6]: 0.73
- OR_het, risk of RMI [1, 6]: 0.73
- OR, risk of RMI [1, 7]: 0.56
- OR_maj, risk of RMI [1, 7]: 0.56
- OR, risk of RMI [1, 8]: 5.87
- OR_min, risk of RMI [1, 8]: 5.87
- OR, risk of RMI ([1]; marker hCV25749177, heterozygous): 0.74
- OR, risk of RMI ([1]; marker hCV25749177, major homozygous): 0.57
- OR, risk of RMI ([1]; marker hCV25749177, minor homozygous): 2.81
- OR_dom, risk of RMI ([1]; marker hCV25963691, Dominant): 0.64
- OR_het, risk of RMI ([1]; marker hCV25963691, Heterozygous): 0.62
- OR_maj, risk of RMI ([1]; marker hCV25963691, Major Homozygous): 0.71
- OR_min, risk of RMI ([1]; marker hCV25963691, Minor Homozygous): 0.72
- Risk Reduction by Statin (Pravastatin vs. Placebo) OR [1]: approximately 0.5
- Risk Reduction by Statin (Pravastatin vs. Placebo) OR ([1]; listed as Pravastatin): 0.54
- myopathic potential [2]: low myopathic potential
